Test results published in US10301299B2, “Glycosidase inhibitors” (Merck Patent GmbH, priority 2013, dated 2019).

How the values were obtained:
Tg(tauP301L)4510 mice [1] = test: Western blot of O-GlcNAcylation and tau phosphorylation in brain of Tg4510 mice; format: in vivo, mouse
Method: (§1) Animals: Tg(tauP301L)4510 mice were generated as previously described (Santacruz et al., 2005, Science 309: 476-481). Animals were bred and housed at the McLaughlin Research Institute (Great Falls, Mont.). All experiments were approved by the MRI Institutional Animal Care and Use Committee (IACUC).
Tau immunoprecipitation: To immunoprecipitate tau protein from brain lysates a Crosslink Immunoprecipitation kit (Pierce 26147) was used. The A/G resin was crosslinked to 10 μg of the HT7 tau antibody (Thermo Scientific MN1000) or control mouse IgG (Santa Cruz Biotech sc-2025) via the manufacturer's protocol. 250 μg of brain lysates prepared as described below was incubated with the resin-coupled tau antibody overnight at 4-C. Samples were eluted with 50 μl of low pH Elution buffer and immediately centrifuged into collection tubes containing 5 μl of 1M Tris, pH 9.5. Immunoprecipitated tau was subjected to Western blotting as described below.
Western Blot: To examine changes in O-GlcNAcylation and phosphorylation, animals were euthanized 4 h after injection in the acute or subchronic studies and 24 h after the last injection in the chronic study. Hemi-forebrains were rapidly dissected and frozen on dry ice. Tissue samples were homogenized in Phosphosafe Buffer (EMD Chemicals), followed by a low-speed centrifugation (15,000 g) to remove cellular debris. The resulting supernatant (low-speed supernatant, Lss) was assayed to determine protein concentrations by Lowry method. O-GlcNAcylation and phosphorylation were determined in 20 μg protein samples subjected to 4-15% SDS-PAGE (Tris-HCl gels, Bio-Rad), followed by a transfer to nitrocellulose membranes (Invitrogen, IBlot system). Membranes were blocked in Licor blocking buffer at room temperature for 1 h and incubated in primary antibody overnight at 4° C. Total protein O-GlcNAcylation was detected using the RL2 antibody (1:500, ThermoScientific), tau O-GlcNAcylation was detected using the Otau(S400) antibody (1:500) and tau phosphorylation was detected using AT8 (1:500, ThermoScientific), pS396, pS262, pS356 (1:500, Abcam) and pS400 (1:5000, GenScript). GAPDH (1:1000, Abcam) or total tau (1:50,000 ThermoScientific) antibodies served as internal loading controls. Membranes were incubated with species-specific fluorophore-conjugated secondary (1:10,000; Licor) antibodies for 1 h at room temperature and detected using the Licor Odyssey. […]

Tg(tauP301L)4510 mice [2] = test: Immunohistochemistry (AT8) and Bielschowsky stain of hippocampus in Tg4510 mice; format: in vivo, mouse; conditions: chronic 4 months
Method: as §1
Immunohistochemistry: To examine changes in tangle pathology, a hemibrain was dissected and immersion fixed in 10% neutral buffered formalin for 24-48 h and subsequently embedded in paraffin blocks. 10 micron serial coronal sections were mounted onto Superfrost Plus slides, and stained using Bond Intense R kit. To detect dystrophic AT8 neurons, mounted slides were pretreated with antigen retrieval solutions for 10 min followed by washes with BOND wash buffer. Sections were subsequently quenched with hydrogen peroxide in Bond Intense R kit, blocked with M.O.M. blocking buffer (M.O.M Immunodetection Kits, Vector Laboratories), and then incubated with pS202/205 primary antibody (1:500; ThermoScientific). Sections were then incubated sequentially with biotinylated donkey anti-mouse secondary antibody (1:200; Jackson Immunoresearch), Streptavidin-HRP, and 3,3′-diaminobenzidine (both BOND Intense R kit). To detect agyrophilic tangles, sections were deparafinized, rehydrated in distilled water and treated with formaldehyde (4%) overnight at 37° C. Sections were washed in tap water, incubated in a 20% silver nitrate solution for 15 min in the dark, washed, incubated with ammoniated silver solution for 10 min in the dark, washed in ammonia water, and treated with developer. Sections were subsequently washed in ammonia water, distilled water, thiosulfate sodium, dehydrated and mounted.

## CCN=C1N[C@@H]2[C@@H](O)[C@H](O)[C@@H](CO)O[C@@H]2S1 [ThiametG]
Tg(tauP301L)4510 mice [1]; 4 months of dosing
  tau O-GlcNAcylation elevated (Otau(S400)): 9 fold
Tg(tauP301L)4510 mice [1]; 4 months, 500 mg/kg/day
  levels of total protein O-GlcNAcylation: 185%
Tg(tauP301L)4510 mice [1]; 14 days
  tau phosphorylation at S202/205: returned towards basal levels
  tau phosphorylation at S262: returned towards basal levels
  tau phosphorylation at S356: still significantly reduced
  tau phosphorylation at S396: returned towards basal levels
Tg(tauP301L)4510 mice [1]; 14 days of administration, 500 mg/kg/day, vs vehicle
  total protein O-GlcNAcylation in the CNS: significant increase
Tg(tauP301L)4510 mice [1]; acute treatment
  tau phosphorylation at S400: did not alter
Tg(tauP301L)4510 mice [1]; repeated injection (14 days), vs vehicle
  increase in tau O-GlcNAcylation (Otau(S400)): 9 fold
Tg(tauP301L)4510 mice [1]; single injection
  tau O-GlcNAcylation (Otau(S400)): small increase
  tau phosphorylation at S202/205: reduced
  tau phosphorylation at S262: reduced
  tau phosphorylation at S356: reduced
  tau phosphorylation at S396: reduced
Tg(tauP301L)4510 mice [1]; single injection, 500 mg/kg/day, 4 h, vs vehicle
  total protein O-GlcNAcylation in the CNS: significant increase
Tg(tauP301L)4510 mice [2]; CA1 region of the hippocampus
  pS202/205 (AT8) positive dystrophic neurons: significantly reduced
  tangle pathology (Bielschowsky staining): significant reduction
Tg(tauP301L)4510 mice [2]; CA3 region of the hippocampus
  pS202/205 (AT8) positive dystrophic neurons: significantly reduced
  tangle burden (Bielschowsky staining): no difference
